Data from US8642594B2, “Substituted thieno[2,3-d]pyrimidines as HSP90 inhibitors” (Vernalis (R&D) Limited, priority 2003, dated 2014).

molecular target: T1, Human full-length Hsp90 (Homo sapiens, UniProt P08238); assay: Fluorescence polarization assay (competitive binding to HSP90, probe RBT0045864-FAM); settings: fluorescence polarization assay, activity range; read-out: Hsp90 FP IC50
T1 construct: E. coli expressed human full-length HSP90 protein, purified >95%; made in house; host or cells: E. coli
In short: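 Competitive fluorescence polarization: test compound displaces FAM-labelled probe RBT0045864-FAM (200 nM working solution) from HSP90 after equilibration, and anisotropy change is measured. Compounds serially diluted; BSA-containing buffer; standard compound as positive control; Z′ from zero and positive controls.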

T1 sequence (P08238 whole entry): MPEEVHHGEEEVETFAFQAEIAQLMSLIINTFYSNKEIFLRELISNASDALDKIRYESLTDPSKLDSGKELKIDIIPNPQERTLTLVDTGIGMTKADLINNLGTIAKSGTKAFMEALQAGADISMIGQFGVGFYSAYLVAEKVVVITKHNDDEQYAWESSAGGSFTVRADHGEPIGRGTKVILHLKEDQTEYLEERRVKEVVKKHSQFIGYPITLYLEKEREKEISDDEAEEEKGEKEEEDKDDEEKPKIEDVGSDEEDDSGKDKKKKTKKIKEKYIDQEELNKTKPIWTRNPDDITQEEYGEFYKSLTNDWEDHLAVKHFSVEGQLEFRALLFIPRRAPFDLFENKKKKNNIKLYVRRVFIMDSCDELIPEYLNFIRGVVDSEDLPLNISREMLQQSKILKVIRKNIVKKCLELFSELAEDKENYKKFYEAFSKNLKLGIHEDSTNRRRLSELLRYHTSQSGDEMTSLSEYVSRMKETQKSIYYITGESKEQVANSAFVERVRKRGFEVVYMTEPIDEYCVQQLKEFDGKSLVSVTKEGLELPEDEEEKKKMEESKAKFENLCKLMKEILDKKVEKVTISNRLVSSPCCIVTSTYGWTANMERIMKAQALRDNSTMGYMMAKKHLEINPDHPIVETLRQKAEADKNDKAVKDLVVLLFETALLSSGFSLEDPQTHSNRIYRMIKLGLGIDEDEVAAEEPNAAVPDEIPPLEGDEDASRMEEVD

SMILES | IC50 [µM]
Cc1ccc(-c2nc(N)nc3sc(C(=O)NCCCN(C)C)cc23)c(C)c1 [Example 83] | < 10
Nc1nc(-c2ccccc2)c2cc(C(=O)Nc3ccccc3)sc2n1 [Example 60] | > 10
Nc1nc(-c2ccc(Cl)cc2Cl)c2cc(C(=O)Nc3ccc(F)cc3)sc2n1 [Example 135] | < 10
CCNC(=O)c1cc2c(-c3cc(CNCc4cccs4)c(C)cc3C)nc(N)nc2s1 [Example 233] | < 10
CCNC(=O)c1cc2c(-c3cccc(OCCN(CC)CC)c3)nc(N)nc2s1 [Example 260] | < 10
CCOC(=O)c1cc2c(C(=O)c3ccc(C)c(C)c3)nc(N)nc2s1 [Example 306] | < 10
CC(C)NC(=O)c1cc2c(-c3cc(OCCN4CCCC4)c(Cl)cc3Cl)nc(N)nc2s1 [Example 257] | < 10
COc1ccc(NC(=O)c2cc3c(-c4ccc(Cl)cc4Cl)nc(N)nc3s2)cc1 [Example 113] | < 10
Nc1nc(-c2ccc(Cl)cc2Cl)c2cc(C(=O)Nc3cc[nH]n3)sc2n1 [Example 143] | < 10
CCNC(=O)c1cc2c(-c3cc(OCC(C)CN(C)C)c(Cl)cc3Cl)nc(N)nc2s1 (stereo not shown) [Example 256] | < 10
CCOC(=O)c1cc2c(C(=O)c3cc(C)cc(C)c3)nc(N)nc2s1 [Example 300] | < 10
CCOC(=O)c1cc2c(-c3ccc(CN4CCCC4)cc3)nc(N)nc2s1 [Example 30] | > 10
CCNC(=O)c1cc2c(-c3cc(CNC4CCCC4)ccc3C)nc(N)nc2s1 [Example 199] | < 10
CCOC(=O)c1cc2c(-c3cccc(C#N)c3)nc(N)nc2s1 [Example 17] | > 10
CCNC(=O)c1cc2c(-c3cc(CNCc4ccco4)ccc3C)nc(N)nc2s1 [Example 210] | < 10
CCOC(=O)c1cc2c(-c3ccc(OCC(=O)OC(C)(C)C)cc3C)nc(N)nc2s1 [Example 192] | > 10
CCNC(=O)c1cc2c(-c3cc(CNCc4ccccn4)ccc3C)nc(N)nc2s1 [Example 216] | < 10

SMILES | IC50 [µM]
Cc1ccc(-c2nc(N)nc3sc(C(=O)NCCO)cc23)c(C)c1 [Example 82] | < 10
CC(C)(NC(=O)c1cc2c(-c3ccc(Cl)cc3Cl)nc(N)nc2s1)c1ccccc1 [Example 140] | < 10
CCCNCc1cc(-c2nc(N)nc3sc(C(=O)NCC)cc23)c(C)cc1C [Example 231] | < 10
Nc1nc(-c2ccc(Cl)cc2Cl)c2cc(C(=O)NC3CC3)sc2n1 [Example 155] | < 10
CCOC(=O)c1cc2c(C(=O)c3ccccc3F)nc(N)nc2s1 [Example 301] | < 10
C=C(c1ccccc1)c1nc(N)nc2sc(C(=O)NCC)cc12 [Example 283] | < 10
CCOC(=O)c1cc2c(-c3ccc(CO)cc3)nc(N)nc2s1 [Example 35] | < 10
C=C(c1ccccc1)c1nc(N)nc2sc(C(=O)OCC)cc12 [Example 276] | < 10
CCOC(=O)c1cc2c(-c3ccc(C#N)cc3C)nc(N)nc2s1 [Example 32] | < 10
C=CCNCc1ccc(C)c(-c2nc(N)nc3sc(C(=O)NCC)cc23)c1 [Example 209] | < 10
CCOC(=O)c1cc2c(-c3cc(C)ccc3C)nc(N)nc2s1 [Example 88] | < 10
CCOC(=O)c1cc2c(-c3ccc(Cl)cc3Cl)nc(N)nc2s1 [Example 89] | < 10
Nc1nc(-c2ccc(Cl)cc2Cl)c2cc(C(=O)NCc3ccc(S(N)(=O)=O)cc3)sc2n1 [Example 116] | < 10
Nc1nc(-c2ccccc2)c2cc(C(=O)NCCN3CCOCC3)sc2n1 [Example 46] | > 10
CCCNCc1ccc(C)c(-c2nc(N)nc3sc(C(=O)NCC)cc23)c1 [Example 197, 2-Amino-4-(2-methyl-5-propylaminomethyl-phenyl)-thieno[2,3-d]pyrimidine-6-carboxylic acid ethylamide] | < 10
CCNC(=O)c1cc2c(-c3cc(CNCC(N)=O)ccc3C)nc(N)nc2s1 [Example 219] | < 10
CN1CCCC1CCNC(=O)c1cc2c(-c3ccc(Cl)cc3Cl)nc(N)nc2s1 (stereo not shown) [Example 157] | < 10
